Assay results: US20250134895A1, “METHODS AND COMPOSITIONS FOR TREATING ALPHA-SYNUCLEIN-MEDIATED NEURODEGENERATION” (UNIVERSITY HEALTH NETWORK, priority 2021, published 2025)

Assays:
HSP70 = HSP70 immunofluorescence in V1S-SV2 primary cortical rat neurons; format: cell-based; conditions: 10 μM
Method: (§1) To investigate the mechanism underlying these drug effects, experiments were directed towards the potential involvement of molecular chaperone HSP70. HSP70 is known to play an essential role in suppressing α-synuclein aggregation, and in particular the inhibition of α-synuclein oligomer formation (Tao et al., 2020). To investigate the in silico predictions of HSP70 interactions with top drug candidates from the Cyclica proteome screening, fluorescence intensity was measured in V1 S-SV2 primary cortical rat neurons (FIGS. 15A and E) for potential effects on α-synuclein oligomers.
Pregnant Sprague Dawley rats (E17) were purchased from Charles River. […] Cells were washed three more times before being counter-stained with DAPI for 5 mins and mounted using ProLong Gold mounting medium for fluorescence (ThermoFisher). […] Fluorescence intensity was analysed automatically using Imaris imaging software (Oxford Instruments) by measuring the mean fluorescence intensity of each individual fluorescent neuron using the “surfaces” module. This module detects fluorescence above background threshold in each field of view, identifies a cell body and neuronal projections of each cell, and calculates the mean fluorescence intensity of each fluorescent cell within the field of view. […] The value generated for each neuron was normalized to the mean of fluorescence intensity of neurons treated with vehicle alone. […]

HSP70 mRNA = assay: Real-time quantitative RT-PCR of HSP70 mRNA in rat primary cortical neurons; format: cell-based; conditions: 10 μM
Method: FIG. 18. […] Real-time quantitative RT-PCR was performed with 3 distinct primer sets for HSP70. β-Actin was used as the reference gene and the expression of HSP70 mRNA was analyzed by 2^−ΔΔCT method. The control group treated with DMSO was set as calibrator sample representing the 1×expression. Data are presented as mean±SEM. (n=3 independent experiments, unpaired two-tailed Student's t-test, ** p<0.01)
as §1, with “HSP70 is known to play an essential role in suppressing α-synuclein aggregation, and in particular the inhibition of α-synuclein oligomer formation (Tao et al., 2020).” left out
Total RNA was isolated from the cultured neurons on DIV 5 using RNeasy Mini Kit (50) (Qiagen, Cat #74104) according to the manufacturer's instructions. RNA quantity and purity were determined by spectrophotometric analysis (NanoDrop 2000c; Thermo Scientific). […] Quantitative real-time PCR was performed in the Quant Studio™ 5 Real-Time PCR System (ThermoFisher Scientific) using Power Track™ SYBR Green Master Mix (Invitrogen, Cat #A46109). […]

Structure (SMILES): Nc1nc(NC2CC2)c2ncn([C@H]3C=C[C@@H](CO)C3)c2n1 [Abacavir, abacavir]
- HSP70 fluorescence compared to vehicle control (HSP70): significantly increased
- HSP70 mRNA levels compared with vehicle control (HSP70 mRNA): increased
